What was measured:
Assay type in all cases: cell-based
[1] = system: CDKN1A; assay: qRT-PCR CDKN1A gene expression in drug-treated SFA smooth muscle cells; conditions: SFA smooth muscle cells from normal donor tissue; qRT-PCR calibrated against unstimulated control; FIG. 13A
Procedure: (§1) FIG. 13 depicts effects of paclitaxel on cellular morphology, gene and protein expression. (A and B) SFA smooth muscle cells from normal donor tissue were treated with Paclitaxel, Everolimus or Sirolimus. Gene expression levels were determined by qRT-PCR for each drug arm calibrated against unstimulated control for (A) CDKN1A and (C) CTGF. (B) SMCs were exposed to Sirolimus or Paclitaxel, fixed and stained with Actin (red) and Ki67 (green). (D) SFA derived smooth muscle cells were treated with Paclitaxel, Everolimus or Sirolimus then stimulated with Colchicinne (CTGF a) or Angiotensin II (CTGF b). Protein levels were detected by western blot using antibodies against CTGF and beta actin. One representative blot of three replicates shown.
(§2) Obtaining samples from SFA arteries allowed us to generate SFA derived-smooth muscle cells and to examine the expression of genes of interest as ide12tified in the disease atherectomy samples. In particularly we investigated the transcriptional response to anti-proliferative drugs, e.g. paclitaxel and drugs from the limus family such as sirolimus, everolimus or zotarolimus. These drugs are currently employed in combination devices indicated for the treatment of coronary and peripheral disease, including drug eluting stents and drug eluting balloons. […]

[2] = system: BTG2; assay: qRT-PCR BTG2 expression in drug-treated, inflammatory cocktail stimulated SFA smooth muscle cells; conditions: quiescent SFA smooth muscle cells stimulated with FBS, TGF Beta and IL1beta, FIG. 14A
Procedure: (§3) FIG. 14 depicts differential effect of paclitaxel versus the Limus family of drugs on expression of cell cycle, proliferation and ECM target genes in SFA smooth muscle cells. Quiescent SFA smooth muscle cells were treated with of Paclitaxel, Zotarolimus or Sirolimus then stimulated with inflammatory cocktail consisting of FBS, TGF Beta and IL1beta. Relative gene expression levels were determined by qRT-PCR for each drug treated arm as calibrated against the unstimulated baseline control for (A) BTG2, (B) KLF4, (C) PEDF, (D) Endothelin-1, (E) Thrombospondin-1, and (F) Thrombospondin-3.
(§4) Since the limus drugs have been known to affect the signaling via their effect on cell cycle inhibitors (CDKN1A and CDKN1B), we next studied their effects on the pertinent proliferative disease targets identified in this study. Specifically, we looked at BTG2, KLF4 and PEDF (FIGS. 14A, 14B, and 14C, respectively). […] The limus drugs, sirolimus and zotarolimus induced the expression of BTG2, KLF4 cell cycle inhibitors, but not of the proliferation PEDF inhibitor, which are previously unknown actions for these drugs.

[3] = system: Endothelin-1; assay: qRT-PCR Endothelin-1 expression in drug-treated, inflammatory cocktail stimulated SFA smooth muscle cells; conditions: quiescent SFA smooth muscle cells stimulated with FBS, TGF Beta and IL1beta, FIG. 14D
Procedure: as §3
(§5) In a similar manner, the expression of Thrombospondin-1 and Thrombospondin-3 is inhibited by paciltaxel but not by sirolimus and zotarolimus. Taken together the data with regards to the differential effects of commercially employed, anti-proliferative drugs, such as paciltaxel and drugs of the limus family, on the expression of SFA disease target genes can highlight/point to wards the most beneficial therapeutic mode of application and treatment.

[4] = system: KLF4; assay: qRT-PCR KLF4 expression in drug-treated, inflammatory cocktail stimulated SFA smooth muscle cells; conditions: quiescent SFA smooth muscle cells stimulated with FBS, TGF Beta and IL1beta, FIG. 14B
Procedure: as §3, §4

[5] = system: Thrombospondin-1; assay: qRT-PCR Thrombospondin-1 expression in drug-treated, inflammatory cocktail stimulated SFA smooth muscle cells; conditions: quiescent SFA smooth muscle cells stimulated with FBS, TGF Beta and IL1beta, FIG. 14E
Procedure: as §3, §5

[6] = system: Thrombospondin-3; assay: qRT-PCR Thrombospondin-3 expression in drug-treated, inflammatory cocktail stimulated SFA smooth muscle cells; conditions: quiescent SFA smooth muscle cells stimulated with FBS, TGF Beta and IL1beta, FIG. 14F
Procedure: as §3, §5

[7] = system: CTGF; assay: Western blot of CTGF protein in drug-treated SFA derived smooth muscle cells; conditions: SFA derived smooth muscle cells stimulated with Colchicinne or Angiotensin II, FIG. 13D
Procedure: as §1, §2

[8] = system: CTGF; assay: qRT-PCR CTGF gene expression in drug-treated SFA smooth muscle cells; conditions: qRT-PCR calibrated against unstimulated control, FIG. 13C
Procedure: as §1, §2

[9] = system: Cathepsin S; assay: In vitro Cathepsin S expression
[10] = system: PEDF; assay: qRT-PCR PEDF expression in drug-treated, inflammatory cocktail stimulated SFA smooth muscle cells; conditions: quiescent SFA smooth muscle cells stimulated with FBS, TGF Beta and IL1beta, FIG. 14C
Procedure: as §3, §4

[11] = system: SFA smooth muscle cells; assay: Actin and Ki67 staining of drug-exposed SMCs (cellular morphology); conditions: SMCs fixed and stained with Actin and Ki67; FIG. 13B
Procedure: as §1, §2

| SMILES | CDKN1A gene expression [1] | BTG2 gene expression [2] | Endothelin-1 gene expression [3] | KLF4 gene expression [4] | Thrombospondin-1 gene expression ([5]; listed as paciltaxel) | Thrombospondin-1 gene expression ([5]; listed as paclitexel) | Thrombospondin-3 gene expression ([6]; listed as paciltaxel) | Thrombospondin-3 gene expression ([6]; listed as paclitexel) | CTGF protein levels [7] | CTGF gene expression [8] | CTGF gene expression ([8]; listed as paclitexel) | Endothelin-1 gene expression ([3]; listed as paciltaxel) | Endothelin-1 gene expression ([3]; listed as paclitexel) | Cathepsin S expression [9] | PEDF gene expression [10] | effect on cellular cytoskeleton / morphology [11] |
| --- | --- | --- | --- | --- | --- | --- | --- | --- | --- | --- | --- | --- | --- | --- | --- | --- |
| CO[C@H]1C[C@@H]2CC[C@@H](C)[C@@](O)(O2)C(=O)C(=O)N2CCCC[C@H]2C(=O)O[C@H]([C@H](C)C[C@@H]2CC[C@@H](OCCO)[C@H](OC)C2)CC(=O)[C@H](C)/C=C(\C)[C@@H](O)[C@@H](OC)C(=O)[C@H](C)C[C@H](C)/C=C/C=C/C=C/1C [everolimus] | up regulating | – | – | – | – | – | – | – | – | – | – | – | – | – | – | – |
| CO[C@H]1C[C@@H]2CC[C@@H](C)[C@@](O)(O2)C(=O)C(=O)N2CCCC[C@H]2C(=O)O[C@H]([C@H](C)C[C@@H]2CC[C@H](n3cnnn3)[C@H](OC)C2)CC(=O)[C@H](C)/C=C(\C)[C@@H](O)[C@@H](OC)C(=O)[C@H](C)C[C@H](C)/C=C/C=C/C=C/1C [zotarolimus] | – | induced | substantially upregulated | induced | – | – | – | – | – | – | – | – | – | – | – | – |
| CC(=O)O[C@H]1C(=O)[C@@]2(C)[C@H]([C@H](OC(=O)c3ccccc3)[C@]3(O)C[C@H](OC(=O)[C@H](O)[C@@H](NC(=O)c4ccccc4)c4ccccc4)C(C)=C1C3(C)C)[C@]1(OC(C)=O)CO[C@@H]1C[C@@H]2O (relative stereo) [Paclitaxel, (1S,2S,3R,4S,7R,9S,10S,12R,15S)-4,12-Diacetoxy-15-{[(2R,3S)-3-(benzoylamino)-2-hydroxy-3-phenylpropanoyl]oxy}-1,9-dihydroxy-10,14,17,17-tetramethyl-11-oxo-6-oxatetracyclo[11.3.1.0˜3, 10˜.0˜4,7˜]heptadec-13-en-2-yl rel-benzoate] | does not affect | up regulated | – | up regulated | inhibited | substantially down regulated | inhibited | substantially down regulated | reduced | substantial down regulation | substantially down regulated | slightly inhibited | substantially down regulated | induces | up regulated | disrupting cellular cytoskeleton |
